# How the values were obtained:
# [1] = tested on: OVV-EGFP in CAOV2-R tumor cells; format: cell-based, vaccinia virus
# [2] = tested on: OVV-EGFP in ID8-R tumor cells; format: cell-based, vaccinia virus
# [3] = tested on: parental and drug-resistant ID8 cells; format: cell-based, murine; details: 72-h cell viability assay, ID8-R versus parental cells
# CAOV2-R cells = experiment: Growth in the presence of DOX (trypan blue exclusion test); format: cell-based, human; details: DOX 3 μM, after a one-week period
# Protocol: (§1) FIG. 9. Susceptibility of parental and resistant ID8 and CAOV2 tumor cells to PTX, CBDCA and DOX. (a) Characterization of side population (SP) in the parental (P) and drug-resistant (R) ID8 (left panel) and CAOV2 (right panel) tumor cells by Hoechst 33342 dye staining. One representative experiment of two independent experiments performed in duplicates is shown. Growth of the parental and drug-resistant tumor variants of ID8 (b) and CAOV2 (c) cells in the presence of PTX (59 nM) and CBDCA (2.6 μM) (left panel) or DOX (3 μM) (right panel) was determined by a trypan blue exclusion test for cell viability. Bars represent the mean±SD of two independent experiments using triplicate samples.
# ID8-R cells = experiment: as above; format: cell-based, murine; details: DOX 3 μM, after a one-week period
# Protocol: as §1
# ID8-R tumor cells = format: cell-based, murine; details: 24 h cultures, OVV MOI of 1 or DOX 1 μM alone
# [4] = tested on: parental and drug-resistant CAOV2 cells; format: cell-based, human; details: 72-h cell viability assay, CAOV2-R versus parental
smiles,measurement,setting,value
"COc1cccc2c1C(=O)c1c(O)c3c(c(O)c1C2=O)C[C@@](O)(C(=O)CO)C[C@@H]3O[C@H]1C[C@H](N)[C@H](O)[C@H](C)O1 [DOX, doxorubicin]",decrease in viral titers,[1],3 fold
same,decrease in viral titers,[2],10 fold
same,IC50 values higher compared to the parental cells,[3],approximately 10 fold
same,dead cells,CAOV2-R cells,over 90%
same,dead cells,ID8-R cells,over 90%
same,cells with apoptosis or necrosis,ID8-R tumor cells,~20%
same,differences in the IC50 values between the resistant and parental cells,[4],3 fold

# Source: US20190307821A1, “METHODS AND COMPOSITIONS FOR CANCER THERAPY” (priority 2016, published 2019)
